# From patent US12643867B2, “Compositions and uses thereof” (University of Virginia Patent Foundation, priority 2017, dated 2026)
# What was measured:
# Assay in all cases: SILAC LC-MS ATP acyl phosphate probe competition, native kinases in HEK293T
# Type in all cases: binding
# [1] = target: T1, CDK5 (Cell division protein kinase 5) (Homo sapiens, UniProt Q00535); details: site Lys2; ATP 1 mM; Ketanserin, Ritanserin 100 μM; RF001 1 mM
# T1 construct: measured against >50 native kinases quantified in HEK293T soluble proteomes; endogenous in cells; host or cells: HEK293T soluble proteome
# T1 sequence (Q00535 whole entry): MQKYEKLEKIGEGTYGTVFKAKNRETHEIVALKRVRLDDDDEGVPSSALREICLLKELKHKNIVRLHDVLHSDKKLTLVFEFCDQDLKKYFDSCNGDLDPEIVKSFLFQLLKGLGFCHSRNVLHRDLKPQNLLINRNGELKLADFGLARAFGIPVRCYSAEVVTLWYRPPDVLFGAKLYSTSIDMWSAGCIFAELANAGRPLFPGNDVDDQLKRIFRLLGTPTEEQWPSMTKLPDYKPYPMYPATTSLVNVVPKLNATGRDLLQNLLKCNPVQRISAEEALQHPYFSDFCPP
# In short: (§1)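 HEK293T SILAC proteomes, 2 mg/ml; heavy + compound (from 50× DMSO stock), light + DMSO, 30 min, 25° C. Mix 1:1, MeOH/CHCl3 extraction, DTT/iodoacetamide, trypsin/Lys-C 3 h 37° C. Avidin enrichment of desthiobiotin-modified peptides; Orbitrap Q Exactive Plus LC-MS, top-10 DDA.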
# [2] = target: T2, CSK (Tyrosine-protein kinase CSK) (Homo sapiens, UniProt P41240); details: site ACT; ATP 1 mM; Ketanserin, Ritanserin 100 μM; RF001 1 mM
# T2 construct: measured against >50 native kinases quantified in HEK293T soluble proteomes; endogenous in cells; host or cells: HEK293T soluble proteome
# In short: as §1
# [3] = target: T3, SMG1 (Serine/threonine-protein kinase SMG1) (Homo sapiens, UniProt Q96Q15); details: site ATP; ATP 1 mM; Ketanserin, Ritanserin 100 μM; RF001 1 mM
# T3 construct: Native kinases; endogenous in cells; host or cells: HEK293T soluble proteome
# In short: as §1
# [4] = target: T4, STK10 (Serine/threonine-protein kinase 10) (Homo sapiens, UniProt O94804); details: site Lys2; ATP 1 mM; Ketanserin, Ritanserin 100 μM; RF001 1 mM
# T4 construct: Native kinases; endogenous in cells; host or cells: HEK293T soluble proteome
# T4 sequence (O94804 whole entry): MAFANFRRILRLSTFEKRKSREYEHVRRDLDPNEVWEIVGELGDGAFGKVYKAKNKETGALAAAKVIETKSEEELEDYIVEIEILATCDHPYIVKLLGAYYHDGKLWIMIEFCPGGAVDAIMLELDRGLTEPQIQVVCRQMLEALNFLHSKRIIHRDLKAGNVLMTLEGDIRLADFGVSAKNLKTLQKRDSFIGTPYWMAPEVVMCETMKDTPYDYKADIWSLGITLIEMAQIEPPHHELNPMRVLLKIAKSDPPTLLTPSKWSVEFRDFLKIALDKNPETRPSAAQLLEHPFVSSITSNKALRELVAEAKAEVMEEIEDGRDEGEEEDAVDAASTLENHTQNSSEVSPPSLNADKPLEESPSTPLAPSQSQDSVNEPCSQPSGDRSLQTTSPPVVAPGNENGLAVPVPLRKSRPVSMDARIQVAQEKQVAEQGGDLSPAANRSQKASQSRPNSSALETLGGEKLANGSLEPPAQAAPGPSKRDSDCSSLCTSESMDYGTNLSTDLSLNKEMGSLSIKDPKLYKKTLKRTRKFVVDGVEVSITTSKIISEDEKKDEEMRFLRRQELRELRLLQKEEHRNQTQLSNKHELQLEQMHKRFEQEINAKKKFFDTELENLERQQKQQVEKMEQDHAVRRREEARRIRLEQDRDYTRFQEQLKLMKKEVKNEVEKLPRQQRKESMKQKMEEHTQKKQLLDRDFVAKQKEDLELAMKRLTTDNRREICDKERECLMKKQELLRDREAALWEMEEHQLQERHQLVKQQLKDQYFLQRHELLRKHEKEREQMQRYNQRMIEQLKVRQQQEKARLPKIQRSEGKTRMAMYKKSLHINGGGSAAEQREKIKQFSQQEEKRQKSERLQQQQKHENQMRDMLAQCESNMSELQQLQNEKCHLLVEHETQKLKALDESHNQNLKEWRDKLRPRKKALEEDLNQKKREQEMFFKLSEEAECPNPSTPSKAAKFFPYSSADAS
# In short: as §1
# [5] = target: T5, STK38 (Serine/threonine-protein kinase 38) (Homo sapiens, UniProt Q15208); details: site Lys1; ATP 1 mM; Ketanserin, Ritanserin 100 μM; RF001 1 mM
# T5 construct: Native kinases; endogenous in cells; host or cells: HEK293T soluble proteome
# T5 sequence (Q15208 whole entry): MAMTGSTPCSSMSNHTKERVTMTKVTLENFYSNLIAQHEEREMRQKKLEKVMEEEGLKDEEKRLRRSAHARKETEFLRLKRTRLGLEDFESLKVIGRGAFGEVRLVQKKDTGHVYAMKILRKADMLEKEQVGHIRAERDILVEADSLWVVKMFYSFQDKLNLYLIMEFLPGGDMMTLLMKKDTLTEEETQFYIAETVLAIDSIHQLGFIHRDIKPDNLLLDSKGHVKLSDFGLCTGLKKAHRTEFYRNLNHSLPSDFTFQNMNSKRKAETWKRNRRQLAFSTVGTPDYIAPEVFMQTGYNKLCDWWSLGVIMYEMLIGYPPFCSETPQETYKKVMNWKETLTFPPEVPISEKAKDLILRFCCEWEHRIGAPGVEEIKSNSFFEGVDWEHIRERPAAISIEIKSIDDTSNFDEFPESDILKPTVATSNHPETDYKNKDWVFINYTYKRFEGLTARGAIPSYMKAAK
# In short: as §1
"SILAC ratio, CDK5 probe-modified peptide [1]","SILAC ratio, CSK probe-modified peptide [2]","SILAC ratio, SMG1 probe-modified peptide [3]","SILAC ratio, STK10 probe-modified peptide [4]","SILAC ratio, STK38 probe-modified peptide [5]",Compound
1.3,1.2,1.3,1.3,1.3,O=C(c1ccc(F)cc1)C1CCN(CCn2c(=O)[nH]c3ccccc3c2=O)CC1 [Ketanserin]
1.1,1.1,1.0,1.1,1.4,"Fc1ccc(C(=C2CCNCC2)c2ccc(F)cc2)cc1 [RF001, 4-(Bis(4-fluorophenyl)methylene) piperidine]"

Compound,"SILAC ratio, CDK5 probe-modified peptide [1]","SILAC ratio, CSK probe-modified peptide [2]","SILAC ratio, SMG1 probe-modified peptide [3]","SILAC ratio, STK10 probe-modified peptide [4]","SILAC ratio, STK38 probe-modified peptide [5]"
Cc1nc2sccn2c(=O)c1CCN1CCC(=C(c2ccc(F)cc2)c2ccc(F)cc2)CC1 [Ritanserin],1.9,1.8,1.7,1.7,2.0
